Measurements reported in patent US20250129086A1, “COMPOUND FOR DEGRADING EGFR PROTEIN AND USE THEREOF” (TYK MEDICINES, INC., priority 2021, published 2025).

Key:
[1] = test system: H1975 (EGFR L858R/T790M double mutation); test: Cell antiproliferative assay (CTG, 72 h), H1975; assay type: cell-based, human; conditions: Homo sapiens, NCI-H1975, 72 h
Outline: (§1)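 Viability by CTG luminescence after 72 h compound exposure, normalised between blank medium and 0.1% DMSO controls, with IC50 from fitted curves. Dosing in triplicate, top 10,000 nM, 4-fold dilutions, applied about 24 h after plating 1500-2500 cells per well.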

[2] = test system: PC-9 (EGFR exon 19 deletion); test: Cell antiproliferative assay (CTG, 72 h), PC-9; assay type: cell-based, human; conditions: Homo sapiens, PC-9, 72 h
Outline: as §1

[3] = test system: HCC827 (exon 19 deletion mutation); test: Cell antiproliferative assay (CTG, 72 h), HCC827; assay type: cell-based, human; conditions: Homo sapiens, HCC827, 72 h
Outline: as §1

[4] = molecular target: T1, EGFR (Homo sapiens, UniProt P00533, DEL746-750); test: EGFR PROTAC In Cell Western assay in HCC827; assay type: cell-based; conditions: HCC827, EGFR degradation, 16 hours of incubation
T1 construct: host or cells: HCC827
Excerpt: Test Example 2 EGFR PROTAC in Cell Western Assay
HCC827 cell culture medium was purchased from Corning. Cell line HCC827 was purchased from BeNa Culture Collection; EGF Receptor (D38B1) XP Rabbit mAb antibody and β-Actin (8H10D10) Mouse mAb antibody were from CST. IRDye 800CW, IRDye 680RD, and Intercept blocking solution (PBS) were purchased from Licor. Triton-100 was purchased from sigma, and 96-well black cell culture imaging microtiter plates were purchased from Agilent.
1) HCC827 cells were cell counted and cells were inoculated into 96-well black cell culture imaging microtiter plates at a density of 40,000 cells per well, with 100 μl per well. The plate was incubated overnight in a CO2 incubator.
2) Day 1: A gradient dilution of the compound to be tested was added to the cells of the culture plate (with a starting concentration of […], 9 concentrations, a dilution ratio of 1:3, 2 duplicate wells), with a final concentration of DMSO being 0.5%, and a blank control of DMSO without compound. The plate was placed in the cell culture incubator for a final 16 hours of incubation.
3) The culture medium was removed from the 96 wells with a pipette and the residual medium was washed with […] of PBS per well on a shaker for 5 min. After the removal of PBS, cells were quickly fixed by adding 150 μl of fresh fixation buffer (3.7% paraformaldehyde) and incubated for 20 min at room temperature.
4) The fixation buffer was removed and […] of Triton elution buffer (0.3% Triton-100) was added to wash for four times on a shaker for 5 minutes each time.
5)[…] LI-COR Odyssey blocking solution was added and the cells were incubated for 1.5 hours at room temperature with slow shaking on a shaker.
6) To block the samples, a primary antibody against EGFR and Actin were prepared using Antibody Dilution Buffer at a ratio of 1:300. The blocking solution was poured out and the diluted primary antibody was added (at a total volume of 50 μl/per well). The cell plate was covered and incubated at 4° C. overnight.
7) The cell plate was washed four times with PBS+Triton X-100 for 5 minutes each time.
8) Fluorescently labeled secondary antibodies IRDye® 680RD and IRDye® 800CW were diluted with Antibody Dilution Buffer (with a ratio of 1:600, at a total volume of 50 μl/well) and then incubated for one hour at room temperature, protected from light.
9) The cell plate was washed four times with PBS+Triton X-100 for 5 minutes each time.
After pipetting the PBS thoroughly, the plate was inverted and imaged on a Burroughs imager. A multiple exposure program was selected, IRDye 680RD Blot was chosen for the first channel, and IRDye 800CW Blot was chosen for the second channel. […] The blank group was the DMSO group, EGFR/Actin was calculated as the EGFR value of the corresponding sample wells, and the degradation rate=100-100*EGFR signal/DMSO signal. The DC50 and Dmax of the degraded EGFR proteins were calculated by fitting curves using the Prism software, 3-parameter method.

T1 sequence (P00533 with tags, fused parts or gaps DEL746-750): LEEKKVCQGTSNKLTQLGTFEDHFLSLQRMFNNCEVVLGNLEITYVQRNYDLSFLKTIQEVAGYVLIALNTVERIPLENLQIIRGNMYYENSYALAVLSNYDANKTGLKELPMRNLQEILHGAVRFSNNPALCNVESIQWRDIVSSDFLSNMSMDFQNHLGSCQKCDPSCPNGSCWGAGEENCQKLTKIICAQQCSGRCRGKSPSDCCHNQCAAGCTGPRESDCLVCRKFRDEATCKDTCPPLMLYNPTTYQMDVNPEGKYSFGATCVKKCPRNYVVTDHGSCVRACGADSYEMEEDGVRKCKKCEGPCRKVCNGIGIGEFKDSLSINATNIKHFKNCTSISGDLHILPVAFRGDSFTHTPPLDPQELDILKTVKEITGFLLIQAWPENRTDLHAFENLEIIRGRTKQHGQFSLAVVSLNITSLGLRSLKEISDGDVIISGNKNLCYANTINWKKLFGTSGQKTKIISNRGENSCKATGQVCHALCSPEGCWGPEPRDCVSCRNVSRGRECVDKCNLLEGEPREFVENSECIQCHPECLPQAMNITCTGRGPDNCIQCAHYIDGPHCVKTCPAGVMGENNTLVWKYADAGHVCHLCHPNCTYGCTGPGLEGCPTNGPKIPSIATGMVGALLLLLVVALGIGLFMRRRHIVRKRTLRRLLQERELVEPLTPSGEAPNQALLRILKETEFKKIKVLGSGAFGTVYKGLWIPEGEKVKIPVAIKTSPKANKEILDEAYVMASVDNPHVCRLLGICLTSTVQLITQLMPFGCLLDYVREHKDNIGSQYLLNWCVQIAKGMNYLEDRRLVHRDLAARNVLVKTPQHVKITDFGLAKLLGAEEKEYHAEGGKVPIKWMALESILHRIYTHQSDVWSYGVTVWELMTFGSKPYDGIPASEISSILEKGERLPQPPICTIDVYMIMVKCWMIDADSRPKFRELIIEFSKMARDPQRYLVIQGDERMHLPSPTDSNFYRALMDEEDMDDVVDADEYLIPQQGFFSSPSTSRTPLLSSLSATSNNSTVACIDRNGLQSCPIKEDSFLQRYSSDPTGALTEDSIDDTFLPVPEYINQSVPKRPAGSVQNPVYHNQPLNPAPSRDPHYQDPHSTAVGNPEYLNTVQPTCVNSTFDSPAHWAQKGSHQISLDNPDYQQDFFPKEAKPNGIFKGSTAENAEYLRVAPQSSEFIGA

Row | SMILES | IC50 ([1]; Table 2, H1975 cells) [nM] | IC50 ([1]; Table 3, H1975 cells) [nM] | IC50 ([2]; Table 2, PC-9 cells) [nM] | IC50 ([2]; Table 3, PC-9 cells) [nM] | IC50 ([3]; Table 2, HCC827 cells) [nM] | IC50 ([3]; Table 3, HCC827 cells) [nM] | Dmax ([4]; HCC827, Table 4) [%] | DC50 ([4]; Table 4) [nM] | Dmax ([4]; HCC827, Table 5) [%] | DC50 ([4]; Table 5) [nM]
1 | O=C1CCC(Nc2ccc(C3CCN(CC(=O)N4CCN(c5ccc(-c6cc(F)c7c(c6)C(=O)N(C(C(=O)Nc6nccs6)c6ncn8c6CCC8)C7)cc5)CC4)CC3)cc2)C(=O)N1 (centres unmarked) [Comparative Compound 1, reference compound] | 100 to 1000 | 548 | ≥ 1000 | > 5000 | ≥ 1000 | > 5000 | < 50 | ≥ 1000 |  | 
2 | COc1cc(N2CCC(N3CCN(C(=O)C4CCN(CC5CCN(c6ccc7c(c6)C(=O)N(C6CCC(=O)NC6=O)C7=O)CC5)CC4)CC3)CC2)ccc1Nc1ncc(Cl)c(Nc2ccccc2P(C)(C)=O)n1 (centres unmarked) [Comparative Compound 2, reference compound] | 100 to 1000 | 186 | ≥ 1000 | 1940 | 100 to 1000 | 221 | 50 to 70 | 10 to 100 | 64.7 | 22.3
3 | COc1cc(N2CCC(N3CCN(C(=O)CCCCN4CCN(c5ccc6c(c5)C(=O)N(C5CCC(=O)NC5=O)C6=O)CC4)CC3)CC2)ccc1Nc1ncc(Cl)c(Nc2ccccc2N(C)S(C)(=O)=O)n1 (centres unmarked) [Comparative Compound 3, reference compound] | 100 to 1000 | 386 | 100 to 1000 | 682 | 10 to 100 | 72.5 | 50 to 70 | 10 to 100 | 56.4 | 15.2
4 | COc1cc(N2CCN(C(=O)CN3CCN(c4ccc(NC5CCC(=O)NC5=O)nc4)CC3)CC2)ccc1Nc1ncc(Cl)c(Nc2ccccc2C(C)=O)n1 (centres unmarked) [Compound T-101] | 100 to 1000 |  | 100 to 1000 |  | 100 to 1000 |  | 50 to 70 | 10 to 100 |  | 
5 | COc1cc(N2CCC(N3CCN(C(=O)CN4CCC(c5ccc(NC6CCC(=O)NC6=O)cc5)CC4)CC3)CC2)ccc1Nc1ncc(Cl)c(Nc2ccccc2C(C)=O)n1 (centres unmarked) [Compound T-121] | 100 to 1000 |  | ≥ 1000 |  | 100 to 1000 |  | 50 to 70 | 100 to 1000 |  | 
6 | COc1cc(N2CC3CC(C2)N3C(=O)CN2CCC(c3ccc(NC4CCC(=O)NC4=O)cc3)CC2)ccc1Nc1ncc(Cl)c(Nc2ccccc2C(C)=O)n1 (centres unmarked) [Compound T-125] | 100 to 1000 |  | ≥ 1000 |  | 100 to 1000 |  | < 50 | 10 to 100 |  | 
7 | COc1cc(C(=O)N2CCC(c3ccc(NC4CCC(=O)NC4=O)cc3)CC2)ccc1Nc1ncc(Cl)c(Nc2ccccc2C(C)=O)n1 (centres unmarked) [Compound T-130] |  |  |  |  |  |  | < 50 | 100 to 1000 |  | 
8 | COc1cc(N2CCN(C(=O)CN3CCC(c4ccc(NC5CCC(=O)NC5=O)cc4)CC3)CC2)ccc1Nc1ncc(C(F)(F)F)c(Nc2ccc(F)cc2F)n1 (centres unmarked) [Compound T-131] |  |  |  |  |  |  | < 50 | 10 to 100 |  | 
9 | COc1cc(N2CC(NC(=O)CN3CCC(c4ccc(NC5CCC(=O)NC5=O)cc4)CC3)C2)ccc1Nc1ncc(Cl)c(Nc2ccccc2C(C)=O)n1 (centres unmarked) [Compound T-169] | 100 to 1000 |  | 100 to 1000 |  | 100 to 1000 |  | < 50 | ≥ 1000 |  | 
10 | CNC(=O)c1ccccc1Nc1nc(Nc2cc(C)c(N3CCN(C(=O)CN4CCC(c5ccc(NC6CCC(=O)NC6=O)cc5F)CC4)CC3)cc2OC)ncc1Br (centres unmarked) [Compound T-368] | 10 to 100 |  | 10 to 100 |  | 10 to 100 |  |  |  |  | 
11 | CNC(=O)c1ccccc1Nc1nc(Nc2cc(C)c(N3CCN(C(=O)CN4CCC(c5ccc(NC6CCC(=O)NC6=O)cc5F)CC4)CC3)cc2OC)ncc1C(F)(F)F (centres unmarked) [Compound T-369] | 10 to 100 |  | 10 to 100 |  | 10 to 100 |  |  |  |  | 

Second part, the compound after the results:

Row | IC50 ([1]; Table 2, H1975 cells) [nM] | IC50 ([1]; Table 3, H1975 cells) [nM] | IC50 ([2]; Table 2, PC-9 cells) [nM] | IC50 ([2]; Table 3, PC-9 cells) [nM] | IC50 ([3]; Table 2, HCC827 cells) [nM] | IC50 ([3]; Table 3, HCC827 cells) [nM] | Dmax ([4]; HCC827, Table 4) [%] | DC50 ([4]; Table 4) [nM] | Dmax ([4]; HCC827, Table 5) [%] | DC50 ([4]; Table 5) [nM] | SMILES
12 | 10 to 100 | 34.3 | 100 to 1000 | 324 | 100 to 1000 | 110 | 70 to 100 | 10 to 100 | 70.5 | 15.6 | COc1cc(N2CCN(C(=O)CN3CCC(c4ccc(NC5CCC(=O)NC5=O)cc4)CC3)CC2)ccc1Nc1ncc(Cl)c(Nc2ccccc2C(C)=O)n1 (centres unmarked) [Compound T-12]
13 | 10 to 100 |  | 100 to 1000 |  | 100 to 1000 |  | 70 to 100 | ≤ 10 |  |  | COc1cc(N2CCN(C(=O)CN3CCC(c4ccc(NC5CCC(=O)NC5=O)cc4)CC3)CC2)ccc1Nc1ncc(Cl)c(Nc2ccccc2P(C)(C)=O)n1 (centres unmarked) [Compound T-13]
14 | 10 to 100 |  | 100 to 1000 |  | 10 to 100 |  | 50 to 70 | 10 to 100 |  |  | COc1cc(N2CCN(C(=O)CN3CCC(c4ccc(NC5CCC(=O)NC5=O)cc4)CC3)CC2)ccc1Nc1ncc(C(F)(F)F)c(Nc2ccccc2C(C)=O)n1 (centres unmarked) [Compound T-47]
15 | 10 to 100 |  | 100 to 1000 |  | 100 to 1000 |  | 50 to 70 | 10 to 100 |  |  | COc1cc(N2CCN(C(=O)CN3CCC(c4ccc(NC5CCC(=O)NC5=O)cc4)CC3)CC2)c(C)cc1Nc1ncc(Cl)c(Nc2ccccc2C(C)=O)n1 (centres unmarked) [Compound T-57]
16 | 10 to 100 |  | 100 to 1000 |  | 100 to 1000 |  | 50 to 70 | 10 to 100 |  |  | COc1cc(N2CCN(C(=O)CN3CCC(c4ccc(NC5CCC(=O)NC5=O)cc4)CC3)CC2C)ccc1Nc1ncc(Cl)c(Nc2ccccc2C(C)=O)n1 (centres unmarked) [Compound T-60]
17 | 10 to 100 |  | 100 to 1000 |  | 100 to 1000 |  | 50 to 70 | 100 to 1000 |  |  | COc1cc(N2CCN(C(=O)CN3CCC(c4ccc(NC5CCC(=O)NC5=O)cc4)CC3)C(C)C2)ccc1Nc1ncc(Cl)c(Nc2ccccc2C(C)=O)n1 (centres unmarked) [Compound T-63]
18 | 10 to 100 |  | ≥ 1000 |  | 100 to 1000 |  | < 50 | 10 to 100 |  |  | COc1cc(N2CC3(CN(C(=O)CN4CCC(c5ccc(NC6CCC(=O)NC6=O)cc5)CC4)C3)C2)ccc1Nc1ncc(Cl)c(Nc2ccccc2C(C)=O)n1 (centres unmarked) [Compound T-66]
19 | 10 to 100 |  | 100 to 1000 |  | 100 to 1000 |  | 70 to 100 | 10 to 100 |  |  | COc1cc(N2CCN(C(=O)CN3CCN(c4ccc(NC5CCC(=O)NC5=O)cc4)CC3)CC2)ccc1Nc1ncc(Br)c(Nc2ccccc2C(C)=O)n1 (centres unmarked) [Compound T-84]
20 | 10 to 100 |  | 100 to 1000 |  | 10 to 100 |  | 50 to 70 | 10 to 100 |  |  | C=CC(=O)Nc1cc(Nc2ncc(Cl)c(Nc3ccccc3C(C)=O)n2)c(OC)cc1N1CCN(C(=O)CN2CCC(c3ccc(NC4CCC(=O)NC4=O)cc3)CC2)CC1 (centres unmarked) [Compound T-91]
21 | 10 to 100 |  | 100 to 1000 |  | 100 to 1000 |  | 50 to 70 | 100 to 1000 |  |  | COc1cc(N2CCC(N(C)C(=O)CN3CCC(c4ccc(NC5CCC(=O)NC5=O)cc4)CC3)CC2)ccc1Nc1ncc(C(F)(F)F)c(Nc2ccccc2C(C)=O)n1 (centres unmarked) [Compound T-163]
22 | 10 to 100 |  |  |  |  |  | < 50 | 100 to 1000 |  |  | COc1cc(N2CCC(N(C)C(=O)C3CCN(CC4CCN(c5ccc6c(c5)C(=O)N(C5CCC(=O)NC5=O)C6=O)CC4)CC3)CC2)ccc1Nc1ncc(Cl)c(Nc2ccccc2C(C)=O)n1 (centres unmarked) [Compound T-228]
23 | 10 to 100 |  | 10 to 100 |  | 10 to 100 |  |  |  |  |  | CNC(=O)c1ccccc1Nc1nc(Nc2cc(C)c(N3CCN(C(=O)CN4CCC(c5ccc(NC6CCC(=O)NC6=O)cc5F)CC4)CC3)cc2OC)ncc1Cl (centres unmarked) [Compound T-367]
